Data on 19 compounds can be found in PubChem BioAssay AID296 (DTP/NCI, 2004).

Several values for one entry are separate records, joined by “and”; a condition that tells them apart may be missing. Identical values can stand only once. Results filed as inconclusive are left out.

The test system of this assay is MX-1 breast xenograft, nude mice, tumor weight T/C. Kind of assay: NCI In Vivo Anticancer Drug Screen. Data for tumor model Human Mammary Carcinoma MX-1 Xenograft (intrarenal inoculation) in NU/NU Swiss (nude) mice. The settings on record: endpoint: mean tumor weight change, higher = larger tumour. The procedure, abridged:
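Read-out: treated (T) over vehicle control (C) ratio of survival or tumor size. Dosing in animals carrying the transplanted tumor.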
A general note: Xenograft models place foreign cells or tissue in a host animal.

The mark [1] stands for this setting: dose: 50.0 mg/kg/injection, schedule: Q01DX010 (sc), vehicle: saline.
Setting [2] is: dose: 100.0 mg/kg/injection, schedule: Q01DX010 (sc), vehicle: saline.
Setting [3] is: dose: 300.0 mg/kg/injection, schedule: Q04DX003 (sc), vehicle: saline with Tween-80.
[4] abbreviates: dose: 600.0 mg/kg/injection, schedule: Q04DX003 (sc), vehicle: saline with Tween-80.
Setting [5] is: dose: 1200.0 mg/kg/injection, schedule: Q04DX003 (sc), vehicle: saline with Tween-80.
[6] abbreviates: dose: 2400.0 mg/kg/injection, schedule: Q04DX003 (sc), vehicle: saline with Tween-80.
The mark [7] stands for this setting: dose: 2400.0 mg/kg/injection, schedule: Q04DX003 (sc), vehicle: Klucel (hydroxypropylcellulose) (HPC).

For the compound `CC(=O)NCCCCCCNC(C)=O`, the T/C runs as follows: under setting [1], 163 % of control; under setting [2], 124 % of control; (dose: 200.0 mg/kg/injection, schedule: Q01DX010 (sc), vehicle: saline) 103 % of control and 111 % of control; (dose: 400.0 mg/kg/injection, schedule: Q01DX010 (sc), vehicle: saline) 84 % of control; (dose: 800.0 mg/kg/injection, schedule: Q01DX010 (sc), vehicle: saline) 88 % of control; (dose: 1600.0 mg/kg/injection, schedule: Q01DX010 (sc), vehicle: saline) 78 % of control and 103 % of control. The T/C by setting is: (dose: 3200.0 mg/kg/injection, schedule: Q01DX010 (sc), vehicle: saline) 104 % of control; (dose: 6400.0 mg/kg/injection, schedule: Q01DX010 (sc), vehicle: saline) 58 % of control.
For `O=c1[nH]cc(F)c(=O)[nH]1`, the T/C was 67 % of control and 90 % of control (dose: 10.0 mg/kg/injection, schedule: Q01DX010 (sc), vehicle: saline); 44 % of control and 54 % of control and 55 % of control (dose: 50.0 mg/kg/injection, schedule: Q04DX003 (sc), vehicle: saline); 13 % of control (dose: 100.0 mg/kg/injection, schedule: Q04DX003 (sc), vehicle: saline).
For `O=C[C@@H](CO)O[C@H](C=O)c1c[nH]c(=O)[nH]c1=O`, the T/C by setting is: (dose: 18.75 mg/kg/injection, schedule: Q04DX003 (ip), vehicle: saline) 91 % of control; (dose: 37.5 mg/kg/injection, schedule: Q04DX003 (ip), vehicle: saline) 59 % of control; (dose: 75.0 mg/kg/injection, schedule: Q04DX003 (ip), vehicle: saline) 35 % of control.
For the compound `CCC(C)Nc1ccc(N)cc1` (configuration not stated), the T/C (dose: 4.5 mg/kg/injection, schedule: Q04DX003 (sc), vehicle: Klucel (hydroxypropylcellulose) (HPC)) was 50 % of control and the T/C (dose: 18.0 mg/kg/injection, schedule: Q04DX003 (sc), vehicle: Klucel (hydroxypropylcellulose) (HPC)) is 76 % of control.
`Nc1nc(=O)n(C2OC(CO)C(O)C2O)cc1F` (configuration not stated): the T/C is, setting by setting: under setting [3], 103 % of control; under setting [4], 77 % of control; under setting [5], 81 % of control; under setting [6], 32 % of control.
Regarding `O=C1N[C@@H]([C@H]2CC[C@H](Cl)CN2)C(=O)N[C@H]1[C@H]1CC[C@H](Cl)CN1`, the T/C was 110 % of control (dose: 0.62 mg/kg/injection, schedule: Q01DX010 (sc), vehicle: water); 72 % of control and 73 % of control (dose: 2.5 mg/kg/injection, schedule: Q01DX010 (sc), vehicle: water); 11 % of control (dose: 2.5 mg/kg/injection, schedule: Q04DX003 (sc), vehicle: water); 30 % of control and 46 % of control (dose: 5.0 mg/kg/injection, schedule: Q01DX010 (sc), vehicle: water); -62 % of control (dose: 5.0 mg/kg/injection, schedule: Q04DX003 (sc), vehicle: water); -100 % of control (dose: 10.0 mg/kg/injection, schedule: Q04DX003 (sc), vehicle: water). Further, for the setting “dose: 20.0 mg/kg/injection, schedule: Q04DX003 (sc), vehicle: water”, the T/C was -100 % of control.
Consider `COC1C(/C=C/C(C)=O)OC2OC(C)(C)OC21` (configuration not stated), for which the T/C (dose: 75.0 mg/kg/injection, schedule: Q04DX003 (sc), vehicle: suspension in saline) was 97 % of control; the T/C (dose: 150.0 mg/kg/injection, schedule: Q04DX003 (sc), vehicle: suspension in saline) is 160 % of control; the T/C (dose: 600.0 mg/kg/injection, schedule: Q04DX003 (sc), vehicle: suspension in saline) is 82 % of control; the T/C (dose: 1200.0 mg/kg/injection, schedule: Q04DX003 (sc), vehicle: suspension in saline) is 63 % of control.
For `Clc1ccc(C(c2ccccc2Cl)C(Cl)Cl)cc1` (configuration not stated), the T/C runs as follows: (dose: 1200.0 mg/kg/injection, schedule: Q04DX003 (sc), vehicle: saline) 85 % of control; (dose: 2400.0 mg/kg/injection, schedule: Q04DX003 (sc), vehicle: saline) 98 % of control; (dose: 4800.0 mg/kg/injection, schedule: Q04DX003 (sc), vehicle: saline) 83 % of control; (dose: 9600.0 mg/kg/injection, schedule: Q04DX003 (sc), vehicle: saline) 39 % of control.
Regarding `CC(C)CC(NC(=O)CF)C(=O)O` (configuration not stated), the T/C is, setting by setting: (dose: 10.0 mg/kg/injection, schedule: Q04DX003 (sc), vehicle: saline) 92 % of control; (dose: 20.0 mg/kg/injection, schedule: Q04DX003 (sc), vehicle: saline) 89 % of control.
On to `O=C(C1CO1)C(Cl)(Cl)Cl` (configuration not stated), for which the T/C (dose: 150.0 mg/kg/injection, schedule: Q04DX003 (sc), vehicle: saline) is 64 % of control.
In the case of `O=C1NC(=O)/C(=C/C=C/c2ccccc2)S1`, the T/C by setting is: under setting [3], 111 % of control; under setting [4], 98 % of control; under setting [5], 84 % of control; under setting [6], 66 % of control.
Take `CCOC(=O)CNC(=O)Sc1ccc(C(C)(C)C)cc1`: the T/C (dose: 300.0 mg/kg/injection, schedule: Q04DX003 (sc), vehicle: Klucel (hydroxypropylcellulose) (HPC)) was 123 % of control; the T/C (dose: 600.0 mg/kg/injection, schedule: Q04DX003 (sc), vehicle: Klucel (hydroxypropylcellulose) (HPC)) was 88 % of control; the T/C (dose: 1200.0 mg/kg/injection, schedule: Q04DX003 (sc), vehicle: Klucel (hydroxypropylcellulose) (HPC)) was 81 % of control; the T/C under setting [7] was 77 % of control.
In the case of `CCCCCCCCCCCCCCC/C([O-])=N/[N+](C)(C)CC(C)O` (configuration not stated), the T/C is, setting by setting: (dose: 200.0 mg/kg/injection, schedule: Q04DX003 (sc), vehicle: Klucel (hydroxypropylcellulose) (HPC)) 95 % of control; (dose: 800.0 mg/kg/injection, schedule: Q04DX003 (sc), vehicle: Klucel (hydroxypropylcellulose) (HPC)) 100 % of control; (dose: 1600.0 mg/kg/injection, schedule: Q04DX003 (sc), vehicle: Klucel (hydroxypropylcellulose) (HPC)) 91 % of control; under setting [7], 63 % of control.
On to `O=C(O)C1CC(c2ccccc2)=NN1c1ccccc1` (configuration not stated), for which the T/C is, setting by setting: (dose: 200.0 mg/kg/injection, schedule: Q04DX003 (sc), vehicle: water) 72 % of control; (dose: 400.0 mg/kg/injection, schedule: Q04DX003 (sc), vehicle: water) 72 % of control.
`COC1OC(CO)C(O)C(NC(=O)N(C)N=O)C1O` (configuration not stated): the T/C was 45 % of control (dose: 225.0 mg/kg/injection, schedule: Q04DX003 (sc), vehicle: saline); 18 % of control and 20 % of control (2×) (dose: 900.0 mg/kg/injection, schedule: Q04DX003 (sc), vehicle: saline); 3 % of control and 4 % of control (dose: 1800.0 mg/kg/injection, schedule: Q04DX003 (sc), vehicle: saline).
For the compound `CCN(CC)CCNc1ccc(C)c2sc3ccccc3c(=O)c12`, the T/C was 79 % of control under setting [1] and 53 % of control under setting [2].
Consider `CNC(=O)OCc1nc(SC)n(C)c1COC(=O)NC`, for which the T/C reads like this: (dose: 50.0 mg/kg/injection, schedule: Q04DX003 (ip), vehicle: saline) 8 % of control; (dose: 100.0 mg/kg/injection, schedule: Q04DX003 (ip), vehicle: saline) 3 % of control; (dose: 200.0 mg/kg/injection, schedule: Q04DX003 (ip), vehicle: saline) -56 % of control.
With `O=c1n(CC2CO2)c(=O)n(CC2CO2)n1CC1CO1` (configuration not stated), the T/C (dose: 9.38 mg/kg/injection, schedule: Q04DX003 (sc), vehicle: saline) is 57 % of control; the T/C (dose: 18.7 mg/kg/injection, schedule: Q04DX003 (sc), vehicle: saline) was 4 % of control; the T/C (dose: 18.75 mg/kg/injection, schedule: Q04DX003 (sc), vehicle: saline) is 2 % of control; the T/C (dose: 29.0 mg/kg/injection, schedule: Q04DX003 (sc), vehicle: saline) is -11 % of control; the T/C (dose: 37.5 mg/kg/injection, schedule: Q04DX003 (sc), vehicle: saline) is -83 % of control and -73 % of control.
Regarding `CC[C@@]1(O)C[C@H](OC2CC(N(C)C)C(OC3CC(O)C(OC4CCC(=O)C(C)O4)C(C)O3)C(C)O2)c2c(cc3c(c2O)C(=O)c2c(O)ccc(O)c2C3=O)[C@H]1C(=O)OC` (some centres not stated), the T/C reads like this: (dose: 3.0 mg/kg/injection, schedule: Q04DX003 (sc), vehicle: water) 88 % of control; (dose: 6.0 mg/kg/injection, schedule: Q04DX003 (sc), vehicle: water) 43 % of control.
